This is an account of results in PMC5522460, “Crystal structure of a low molecular weight activator Blm-pep with yeast 20S proteasome – insights into the enzyme activation mechanism” (Scientific Reports, 2017).

This data set has as its target human 20S proteasome (Homo sapiens, UniProt P25786+P28066). The experiment in a line: Proteolytic stability assay with human 20S proteasome. In kind it is in vitro ADME. The following applies: 10 µM peptide, 0.025 mg/ml h20S, 25 mM Tris-HCl pH 8.0, 3 hours, 37 °C, RP-HPLC and MALDI TOF. The method, then: Blm-pep was incubated either with human or yeast 20S proteasome. Both assays were conducted in 25 mM Tris-HCl buffer (pH 8.0, measured at 20 °C), which for y20S contained 0.25 mM EDTA as an additive. The peptide and proteasome concentrations in 100 μl final solution were 10 µM and 0.025 mg/ml, respectively. Incubation was carried out for 3 hours at 37 °C. The reaction was stopped by addition of 5 μl of 10% TFA. Results were analyzed using RP-HPLC and MALDI TOF. Prior to MS analysis the samples were desalted using C18 spin columns (Pierce).

Where no end group is shown, it is not given here.

On to KYFTGSKLWRSYYA [Blm-pep], for which the “proteolytic stability with human 20S proteasome” value is “digested”.
